Results from patent US4288609A, “Quaternary ammonium derivatives of adamantane with antimicrobic activity” (priority 1976, dated 1981).
Like-named read-outs stand apart in the source and are kept apart here.

Tests used:
Staph.Aureus Tour = experiment: M.I.C. in vitro, gram+ Staph. Aureus (Table 1); assay type: cell-based, Staphylococcus Aureus; conditions: Staphylococcus aureus, read-out: M.I.C.
Method: (§1) The method for evaluating the activity in vitro against bacteria, fungi and protozoa consists in introducing calculated quantities of the substance, the activity of which it is desired to test, into culture media already inoculated with a predetermined number of test germs.
(§2) After 24 or 48 hours of incubation at 30° or 37° C., according to the micro-organism being tested, it is possible to evaluate the growth of the same in the culture broth; in this manner the minimum concentration (M.I.C.) which inhibits the growth of the micro-organisms in vitro is determined.
(§3) In table 1 there are recorded the M.I.C. values in γ/ml of the products subject of the present invention, against certain gram+ and gram- bacterial strains, some of which are pathogenic towards human beings.

Proteus Vulc. ATCC 881 = experiment: M.I.C. in vitro, gram- Proteus Vulc. (Table 1); assay type: cell-based; conditions: read-out: M.I.C.
Method: as §1, §2, §3

Esch. Coli. SKF 12140 = experiment: M.I.C. in vitro, gram- Esch. Coli (Table 1); assay type: cell-based, Escherichia Coli; conditions: Escherichia coli, read-out: M.I.C.
Method: as §1, §2, §3

[1] = tested on: Nicrosporum Canis ATCC 11621; experiment: MIC mildews, Microsporum canis (Table 2); assay type: cell-based; conditions: Sabourand broth
Method: as §1, §2
(§4) Inoculation with Trichophyton mentagrophytes and Microsporum canis was effected in a ratio of 1% of the volume of medium used.
(§5) For the fungi Sabourand broth was used as a culture medium, whilst for the protozoa Kupferberg Trichomonas broth with 5% of horse serum was used.

Pseudom.Aer. ATCC 1014 = experiment: M.I.C. in vitro, gram- Pseudom. Aer. (Table 1); assay type: cell-based, Pseudomonas Aeruginosa; conditions: for MIC: Pseudomonas aeruginosa, read-out: M.I.C.
Method: as §1, §2, §3

[2] = tested on: Trych. Mentagr. 1st.Pastuer; experiment: MIC mildews, Trichophyton mentagrophytes (Table 2); assay type: cell-based; conditions: Sabourand broth
Method: as §1, §2, §4, §5

[3] = tested on: Trich. Vaginalis ISM 66/22; experiment: MIC protozoa, Trichomonas vaginalis (Table 2); assay type: cell-based; conditions: Trichomonas vaginalis, +10% serum (head); Kupferberg Trichomonas broth with 5% of horse serum; read-out: MIC
Method: as §1, §2
(§6) Inoculation with Trichomonas vaginalis and Trichomonas foetus, obtained from cultures transplanted every other day to make them lively, was effected in a ratio of 3.5% of the volume of medium used.
as §5

Diplococcus Pneum. ISM = experiment: M.I.C. in vitro, gram+ Diplococcus Pneum. (Table 1); assay type: cell-based; conditions: read-out: M.I.C.
Method: as §1, §2, §3

[4] = Acute oral toxicity in mice (Table 4); conditions: mouse, in vivo, po, LD50, oral, mice, 14 days
Method: The substances were administered orally to groups of 10 female mice CF1 of average weight of about 20 grams, in aqueous solution and in such way that the total volume administered would be in each case 1 ml/100 g of weight.

[5] = tested on: Streptococ. Henclyt. 0203; experiment: M.I.C. in vitro, gram+ Streptococ. Henclyt. (Table 1); assay type: cell-based; conditions: for MIC: read-out: M.I.C.
Method: as §1, §2, §3

Klens. Pneum. ISM = experiment: M.I.C. in vitro, gram- Klens. Pneum. (Table 1); assay type: cell-based; conditions: read-out: M.I.C.
Method: as §1, §2, §3

Trich. Foetus ISM 66/23 = experiment: MIC protozoa, Trichomonas foetus (Table 2); assay type: cell-based; conditions: +10% serum (head), Kupferberg Trichomonas broth with 5% of horse serum
Method: as §1, §2, §6, §5

[6] = tested on: Candida Pseudotrop. ATCC 2512; experiment: MIC yeasts, Candida pseudotropicalis (Table 2); assay type: cell-based; conditions: Sabourand broth
Method: as §1, §2
(§7) Inoculation with Candida albicans or Candida pseudotropicalis was made by diluting cultures grown for 24 h at 30° C. (cellular density inoculated 10^3 /ml).
as §5

Candida Albic. SKF 2270 = experiment: MIC yeasts, Candida albicans (Table 2); assay type: cell-based; conditions: Sabourand broth
Method: as §1, §2, §7, §5

[7] = Microsporum canis, ATCC11621, +10% serum, read-out: MIC
[8] = Microsporum canis, ATCC11621, without serum, read-out: MIC
[9] = Trichophyton mentagrophytes, +10% serum, read-out: MIC
[10] = Trichophyton mentagrophytes, without serum, read-out: MIC
[11] = Tritrichomonas foetus, read-out: MIC
[12] = Candida, ATCC2512, +10% serum, read-out: MIC
[13] = Candida, ATCC2512, without serum, read-out: MIC
[14] = Candida, +10% serum, read-out: MIC
[15] = Candida, without serum, read-out: MIC

| SMILES | MIC (Staph.Aureus Tour; +10% serum) [µg/mL] | MIC (Staph.Aureus Tour; without serum) [µg/mL] | MIC (Proteus Vulc. ATCC 881; +10% serum) [µg/mL] | MIC (Proteus Vulc. ATCC 881; without serum) [µg/mL] | MIC (Esch. Coli. SKF 12140; +10% serum) [µg/mL] | MIC (Esch. Coli. SKF 12140; without serum) [µg/mL] | MIC [1, 7] [µg/mL] | MIC [1, 8] [µg/mL] | MIC (Pseudom.Aer. ATCC 1014; ATCC1014, +10% serum) [µg/mL] | MIC (Pseudom.Aer. ATCC 1014; ATCC1014, without serum) [µg/mL] | MIC [2, 9] [µg/mL] | MIC [2, 10] [µg/mL] | MIC [3] [µg/mL] | MIC (Diplococcus Pneum. ISM; +10% serum) [µg/mL] | MIC (Diplococcus Pneum. ISM; without serum) [µg/mL] | LD50 at 336 h [4] [mg/kg] | MIC (Klens. Pneum. ISM; +10% serum) [µg/mL] | MIC (Klens. Pneum. ISM; without serum) [µg/mL] | MIC [6, 12] [µg/mL] | MIC (Candida Albic. SKF 2270; [15]) [µg/mL] | other results |
| --- | --- | --- | --- | --- | --- | --- | --- | --- | --- | --- | --- | --- | --- | --- | --- | --- | --- | --- | --- | --- | --- |
| CCCCCCCCCC[N+](CC)(CC)CCOC(=O)C12CC3CC(CC(C3)C1)C2 [Example 5, n-Decyl-diethyl-(1-adamantane-carboxy)-ethyl-ammonium bromide] | 5 | < 0.1 | 100 | 10 | 100 | 5 | 20 | 0.1 | 100 | 50 | 10 | 0.1 | 10 | 10 | 0.5 | 750 | 100 | 10 | 50 | 0.5 | MIC ([5]; +10% serum): 0.5 µg/mL; MIC ([5]; without serum): < 0.1 µg/mL; MIC (Trich. Foetus ISM 66/23; [11]): 5 µg/mL; MIC [6, 13]: 0.1 µg/mL; MIC (Candida Albic. SKF 2270; [14]): 50 µg/mL |
| CCCCCCCCCCCC[N+](CC)(CC)CCNC(=O)C12CC3CC(CC(C3)C1)C2 [Example 12, n-Dodecyl-diethyl-(1-adamantane-carbonylamido)-ethylammonium bromide] | 10 | 0.2 | 100 | 5 | 100 | 10 | 20 | 0.5 | 100 | 20 | 20 | 0.2 | 5 | 20 | 2 | 890 | 100 | 5 | 50 | 1 | MIC ([5]; +10% serum): 5 µg/mL; MIC ([5]; without serum): 0.2 µg/mL; MIC (Trich. Foetus ISM 66/23; [11]): 5 µg/mL; MIC [6, 13]: 0.1 µg/mL; MIC (Candida Albic. SKF 2270; [14]): 20 µg/mL |
| CCCCCCCCCC[N+](CC)(CC)CCNC(=O)C12CC3CC(CC(C3)C1)C2 [Example 9, n-Decyl-diethyl-(1-adamantane-carbonylamido)-ethylammonium bromide] | 5 | 0.1 | 100 | 5 | 50 | 5 |  |  | 50 |  |  |  | 5 | 5 | 1 | 980 | 50 | 10 | 50 | 1 | MIC ([1]; +10% serum): 20 µg/mL; MIC ([1]; without serum): 0.2 µg/mL; M.I.C. (Pseudom.Aer. ATCC 1014; without serum): 10 µg/mL; MIC ([2]; +10% serum): 10 µg/mL; MIC ([2]; without serum): 0.2 µg/mL; M.I.C. ([5]; +10% serum): 0.5 µg/mL; M.I.C. ([5]; without serum): 0.1 µg/mL; MIC (Trich. Foetus ISM 66/23): 2 µg/mL; MIC ([6]; without serum): 0.2 µg/mL; MIC (Candida Albic. SKF 2270; +10% serum): 20 µg/mL |
